Earlier results as cited in patent US20230255953A1, “USE OF ROLUPERIDONE IN PREVENTING RELAPSE IN SCHIZOPHRENIA PATIENTS” (Minerva Neurosciences, Inc., priority 2022, published 2023).
Where two headings read alike, the source gives them in different places.

Columns and labels:
[1] = system: patients with schizophrenia; conditions: Durgam et al. 2016; cited from earlier work
[2] = system: chronic schizophrenia; conditions: Arato et al. 2002 (ZEUS), cited from earlier work

SMILES	Relapse rate [1] [%]	Relapse rate after one year ([2]; 40 mg/day) [%]	Relapse rate after one year ([2]; 80 mg/day) [%]	Relapse rate after one year ([2]; 160 mg/day) [%]
CN(C)C(=O)N[C@H]1CC[C@H](CCN2CCN(c3cccc(Cl)c3Cl)CC2)CC1 [cariprazine]	24.8			
O=C1Cc2cc(CCN3CCN(c4nsc5ccccc45)CC3)c(Cl)cc2N1 [ziprasidone]		43	35	36
